Assay results as given in PubChem BioAssay (NCI).
“And” between values parts separate entries of the source, which are not always exact repeats. Equal entries are not always repeated.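 The compound was tested at five concentrations on cells cultured in 96-well plates, with a 48-hour exposure period. At the GI50, growth is halved. TGI: total growth inhibition.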

Legend:
Assay in all cases: NCI-60 cell line screen, 48 h
SK-OV-3 ovarian = test system: SK-OV-3 ovarian
MCF7 breast = test system: MCF7 breast
UACC-257 melanoma = test system: UACC-257 melanoma
SNB-75 CNS = test system: SNB-75 CNS
LOX IMVI melanoma = test system: LOX IMVI melanoma
NCI-H226 lung = test system: NCI-H226 lung
SK-MEL-2 melanoma = test system: SK-MEL-2 melanoma
HCT-15 colon = test system: HCT-15 colon
OVCAR-4 ovarian = test system: OVCAR-4 ovarian
RPMI-8226 leukemia = test system: RPMI-8226 leukemia

NC(=O)c1ccc(NC(=O)c2oc3ccccc3c2-c2cnn(-c3ccccc3)c2)cc1
GI50 (SK-OV-3 ovarian): > 100 µM
TGI (SK-OV-3 ovarian): > 100 µM
GI50 (MCF7 breast): > 100 µM
TGI (MCF7 breast): > 100 µM
GI50 (UACC-257 melanoma): > 100 µM
TGI (UACC-257 melanoma): > 100 µM
GI50 (SNB-75 CNS): 1.89 µM
TGI (SNB-75 CNS): 8.31 µM
GI50 (LOX IMVI melanoma): > 100 µM
TGI (LOX IMVI melanoma): > 100 µM
GI50 (NCI-H226 lung): 2.98 µM
TGI (NCI-H226 lung): > 100 µM
GI50 (SK-MEL-2 melanoma): 20.4 µM
TGI (SK-MEL-2 melanoma): > 100 µM

O=C(O)c1c(Cl)c(Cl)c(Cl)c(Cl)c1-c1c2cc(I)c(=O)c(I)c-2oc2c(I)c(O)c(I)cc12
GI50 (SK-OV-3 ovarian): 32.4 µM
TGI (SK-OV-3 ovarian): 78.6 µM
GI50 (HCT-15 colon): 55.7 µM
TGI (HCT-15 colon): 162 µM
GI50 (MCF7 breast): 83.5 µM
TGI (MCF7 breast): > 200 µM
GI50 (OVCAR-4 ovarian): 93.1 µM and 43.9 µM
TGI (OVCAR-4 ovarian): 105 µM
GI50 (UACC-257 melanoma): 53.5 µM
TGI (UACC-257 melanoma): 163 µM
GI50 (SNB-75 CNS): 32.1 µM and 34 µM
TGI (SNB-75 CNS): 79.8 µM
GI50 (LOX IMVI melanoma): 19 µM and 34.7 µM
TGI (LOX IMVI melanoma): 43.1 µM and 67.9 µM
GI50 (RPMI-8226 leukemia): 122 µM
TGI (RPMI-8226 leukemia): > 200 µM
GI50 (NCI-H226 lung): 79.7 µM and 38.8 µM
TGI (NCI-H226 lung): 90.9 µM
GI50 (SK-MEL-2 melanoma): 81.4 µM and 37 µM
TGI (SK-MEL-2 melanoma): 78.8 µM

COc1cc([N+](=O)[O-])c2ncccc2c1O
GI50 (SK-OV-3 ovarian): 3.36 µM
TGI (SK-OV-3 ovarian): 14.4 µM
GI50 (HCT-15 colon): 2.56 µM
TGI (HCT-15 colon): 13.4 µM
GI50 (MCF7 breast): 2.96 µM
TGI (MCF7 breast): > 100 µM
GI50 (OVCAR-4 ovarian): 26.6 µM
TGI (OVCAR-4 ovarian): > 100 µM
GI50 (UACC-257 melanoma): 2.56 µM
TGI (UACC-257 melanoma): 7.65 µM
GI50 (SNB-75 CNS): 2.96 µM
TGI (SNB-75 CNS): 17.2 µM
GI50 (LOX IMVI melanoma): 3.88 µM
TGI (LOX IMVI melanoma): 33.6 µM
GI50 (RPMI-8226 leukemia): 27.7 µM
TGI (RPMI-8226 leukemia): > 100 µM
GI50 (NCI-H226 lung): 2.01 µM
TGI (NCI-H226 lung): 6.27 µM
GI50 (SK-MEL-2 melanoma): 9.91 µM
TGI (SK-MEL-2 melanoma): 52.4 µM

NC(=NC1C2CC3CC(C2)CC1C3)Nc1ccc(I)cc1 (stereo unspecified)
GI50 (SK-OV-3 ovarian): 8.68 µM
TGI (SK-OV-3 ovarian): 23.3 µM
GI50 (HCT-15 colon): 2.88 µM
TGI (HCT-15 colon): 10.2 µM
GI50 (MCF7 breast): 2.45 µM
TGI (MCF7 breast): 10.7 µM
GI50 (OVCAR-4 ovarian): 3.26 µM
TGI (OVCAR-4 ovarian): 14 µM
GI50 (UACC-257 melanoma): 2.16 µM
TGI (UACC-257 melanoma): 5.21 µM
GI50 (SNB-75 CNS): 2.09 µM
TGI (SNB-75 CNS): 15.7 µM
GI50 (LOX IMVI melanoma): 1.78 µM
TGI (LOX IMVI melanoma): 3.51 µM
GI50 (RPMI-8226 leukemia): 2.49 µM
TGI (RPMI-8226 leukemia): 5.72 µM
GI50 (NCI-H226 lung): 5.41 µM
TGI (NCI-H226 lung): 22.2 µM
GI50 (SK-MEL-2 melanoma): 2.63 µM
TGI (SK-MEL-2 melanoma): 7.62 µM

CCOC(=O)c1cc2cc([N+](=O)[O-])ccc2oc1=O
TGI (HCT-15 colon): > 100 µM
TGI (MCF7 breast): > 100 µM
TGI (OVCAR-4 ovarian): > 100 µM
TGI (UACC-257 melanoma): > 100 µM
TGI (SNB-75 CNS): > 100 µM
TGI (LOX IMVI melanoma): > 100 µM
TGI (RPMI-8226 leukemia): > 100 µM
TGI (NCI-H226 lung): > 100 µM

CCc1ccc(/C=C2/SC(=S)NC2=O)cc1
GI50 (SK-OV-3 ovarian): 24.6 µM
TGI (SK-OV-3 ovarian): 74.9 µM
GI50 (HCT-15 colon): 16.9 µM
TGI (HCT-15 colon): 39.8 µM
GI50 (MCF7 breast): 21.2 µM
TGI (MCF7 breast): > 85.5 µM
GI50 (OVCAR-4 ovarian): 20 µM
TGI (OVCAR-4 ovarian): > 93.3 µM
GI50 (UACC-257 melanoma): 17.7 µM
TGI (UACC-257 melanoma): 61.3 µM
GI50 (SNB-75 CNS): 21.7 µM
TGI (SNB-75 CNS): > 100 µM
GI50 (LOX IMVI melanoma): 22.4 µM
TGI (LOX IMVI melanoma): > 71.5 µM
GI50 (RPMI-8226 leukemia): 16.5 µM
TGI (RPMI-8226 leukemia): > 76 µM
GI50 (NCI-H226 lung): 20.3 µM
TGI (NCI-H226 lung): 71.3 µM
GI50 (SK-MEL-2 melanoma): 16.4 µM
TGI (SK-MEL-2 melanoma): 41.3 µM

C1CCN2CC34CC(CC5CCCN(C6CCCC3N6)C54)C2C1 (stereo unspecified)
TGI (SK-OV-3 ovarian): > 100 µM
TGI (HCT-15 colon): > 100 µM
TGI (MCF7 breast): > 100 µM
TGI (OVCAR-4 ovarian): > 100 µM
TGI (UACC-257 melanoma): > 100 µM
TGI (SNB-75 CNS): > 100 µM
TGI (LOX IMVI melanoma): > 100 µM
TGI (RPMI-8226 leukemia): > 100 µM
TGI (NCI-H226 lung): > 100 µM
TGI (SK-MEL-2 melanoma): > 100 µM

N#CC(C#N)=C/C=C/c1cccc([N+](=O)[O-])c1
GI50 (SK-OV-3 ovarian): 2.62 µM
TGI (SK-OV-3 ovarian): 9.2 µM
GI50 (HCT-15 colon): 1.39 µM
TGI (HCT-15 colon): 3.98 µM
GI50 (MCF7 breast): 0.482 µM
TGI (MCF7 breast): 9.55 µM
GI50 (OVCAR-4 ovarian): 3.09 µM
TGI (OVCAR-4 ovarian): 13.9 µM
GI50 (UACC-257 melanoma): 1.33 µM
TGI (UACC-257 melanoma): 3.94 µM
GI50 (SNB-75 CNS): 1.73 µM
TGI (SNB-75 CNS): 6.28 µM
GI50 (LOX IMVI melanoma): 0.913 µM
TGI (LOX IMVI melanoma): 2.37 µM
GI50 (RPMI-8226 leukemia): 1.59 µM
TGI (RPMI-8226 leukemia): 9.6 µM

Cc1[nH]nc(C(=O)N/N=C/c2cccs2)c1N=NN(C)C
TGI (SK-OV-3 ovarian): 43.7 µM
TGI (HCT-15 colon): 38.5 µM
TGI (MCF7 breast): 47.4 µM
TGI (OVCAR-4 ovarian): 31 µM
TGI (UACC-257 melanoma): 72.4 µM
TGI (SNB-75 CNS): 8.85 µM
TGI (LOX IMVI melanoma): 34.7 µM
TGI (RPMI-8226 leukemia): 89.7 µM
TGI (NCI-H226 lung): 70.1 µM
TGI (SK-MEL-2 melanoma): 79.8 µM

Cc1cc(C#Cc2ccccc2)ccc1-n1c(/C=C/c2ccc(O)cc2)nc2ccccc2c1=O
GI50 (SK-OV-3 ovarian): 9.91 µM
TGI (SK-OV-3 ovarian): > 100 µM
GI50 (HCT-15 colon): 2.5 µM
TGI (HCT-15 colon): 19.2 µM
GI50 (MCF7 breast): 2.72 µM
TGI (MCF7 breast): 11 µM
GI50 (OVCAR-4 ovarian): 3.17 µM
TGI (OVCAR-4 ovarian): 22.7 µM
GI50 (UACC-257 melanoma): 4.18 µM
TGI (UACC-257 melanoma): 56.3 µM
GI50 (SNB-75 CNS): 3.66 µM
TGI (SNB-75 CNS): 38.4 µM
GI50 (LOX IMVI melanoma): 2.78 µM
TGI (LOX IMVI melanoma): 10.8 µM
GI50 (RPMI-8226 leukemia): 2.33 µM
TGI (RPMI-8226 leukemia): > 100 µM
GI50 (NCI-H226 lung): 3.99 µM
TGI (NCI-H226 lung): > 100 µM
GI50 (SK-MEL-2 melanoma): 1.93 µM
TGI (SK-MEL-2 melanoma): 5.76 µM

O=C(/C=C/c1cccs1)Nc1ncc(Cc2ccccc2F)s1
GI50 (SK-OV-3 ovarian): 0.477 µM
TGI (SK-OV-3 ovarian): > 100 µM
GI50 (HCT-15 colon): 0.123 µM
TGI (HCT-15 colon): > 100 µM
GI50 (MCF7 breast): 0.318 µM
TGI (MCF7 breast): > 100 µM
GI50 (OVCAR-4 ovarian): 0.791 µM
TGI (OVCAR-4 ovarian): > 100 µM
GI50 (UACC-257 melanoma): > 100 µM
TGI (UACC-257 melanoma): > 100 µM
GI50 (SNB-75 CNS): 0.154 µM
TGI (SNB-75 CNS): 0.651 µM
GI50 (LOX IMVI melanoma): 0.18 µM
TGI (LOX IMVI melanoma): > 100 µM
GI50 (RPMI-8226 leukemia): 0.33 µM
TGI (RPMI-8226 leukemia): > 100 µM
TGI (NCI-H226 lung): > 100 µM
GI50 (SK-MEL-2 melanoma): 0.518 µM
TGI (SK-MEL-2 melanoma): > 100 µM

O=C1CCC(c2ccccc2)(c2ccccc2)CC1
TGI (SK-OV-3 ovarian): > 100 µM
TGI (HCT-15 colon): > 100 µM
TGI (MCF7 breast): > 100 µM
TGI (OVCAR-4 ovarian): > 100 µM
TGI (UACC-257 melanoma): > 100 µM
TGI (SNB-75 CNS): > 100 µM
TGI (LOX IMVI melanoma): > 100 µM
TGI (RPMI-8226 leukemia): > 100 µM
TGI (NCI-H226 lung): > 100 µM
TGI (SK-MEL-2 melanoma): > 100 µM

CCN(CC)c1ccc(/C=N\NC(=O)c2cccc(Nc3ccnc(C(F)(F)F)c3)c2)c(O)c1
GI50 (SK-OV-3 ovarian): 0.499 µM
TGI (SK-OV-3 ovarian): > 100 µM
GI50 (HCT-15 colon): 0.123 µM
TGI (HCT-15 colon): > 100 µM
GI50 (MCF7 breast): 0.296 µM
TGI (MCF7 breast): > 100 µM
GI50 (OVCAR-4 ovarian): 0.118 µM
TGI (OVCAR-4 ovarian): > 100 µM
GI50 (UACC-257 melanoma): 0.373 µM
GI50 (SNB-75 CNS): 0.253 µM
TGI (SNB-75 CNS): 7.44 µM
GI50 (LOX IMVI melanoma): 0.133 µM
TGI (LOX IMVI melanoma): 2.22 µM
GI50 (RPMI-8226 leukemia): 0.152 µM
TGI (RPMI-8226 leukemia): 2.2 µM
GI50 (NCI-H226 lung): 0.311 µM
TGI (NCI-H226 lung): 3.48 µM
GI50 (SK-MEL-2 melanoma): 0.893 µM
TGI (SK-MEL-2 melanoma): > 41.2 µM

COCCOC(=O)CCn1cc(F)c(=O)[nH]c1=O
GI50 (SK-OV-3 ovarian): 37.1 µg/mL
TGI (SK-OV-3 ovarian): > 150 µg/mL
GI50 (HCT-15 colon): 6.72 µg/mL
TGI (HCT-15 colon): > 150 µg/mL
GI50 (MCF7 breast): 1.13 µg/mL
TGI (MCF7 breast): > 150 µg/mL
GI50 (OVCAR-4 ovarian): 20.4 µg/mL
TGI (OVCAR-4 ovarian): > 150 µg/mL
GI50 (UACC-257 melanoma): 26.5 µg/mL
TGI (UACC-257 melanoma): > 150 µg/mL
GI50 (SNB-75 CNS): 88.4 µg/mL
TGI (SNB-75 CNS): > 150 µg/mL
GI50 (LOX IMVI melanoma): 10.4 µg/mL
TGI (LOX IMVI melanoma): > 150 µg/mL
GI50 (RPMI-8226 leukemia): 13.8 µg/mL
TGI (RPMI-8226 leukemia): > 150 µg/mL
GI50 (NCI-H226 lung): 119 µg/mL
TGI (NCI-H226 lung): > 150 µg/mL
GI50 (SK-MEL-2 melanoma): > 150 µg/mL
TGI (SK-MEL-2 melanoma): > 150 µg/mL
